{"source": "patent EP0776155B1", "about": "“DELIVERY OF EXOGENOUS CHEMICAL SUBSTANCES TO PLANT TISSUES” (MONSANTO COMPANY, priority 1994, dated 1996)", "system": "velvetleaf (Abutilon theophrasti, ABUTH)", "test": "Example 12: percent control, abrasion 5, 2, 1 days before glyphosate application", "assay_type": "in vivo", "details": "glyphosate rate (kg a.e./ha)", "procedure": "In these Examples illustrative of the invention, velvetleaf (Abutilon theophrasti, ABUTH) seeds were planted in 4-inch (10.1 cm) square pots containing 100% silt loam soil to which 35 grams/cu ft (1.25 kg/m^3) IBDU fertilizer was added, and covered with a mix of 50% Rediearth plus 50% silt loam. The pots were sub-irrigated and the seedlings thinned after emergence to 2 plants per pot.\nAbrasion was applied using propelled 200-mesh garnet exactly as described for Examples 1-9. The herbicide used in these Examples was glyphosate as its isopropylamine salt, applied as diluted MON 2139, exactly as described for Examples 1-9.\nThe time period between abrasion and herbicide application was varied as follows. In Example 11, all abrasion treatments were applied within a short period of time, and herbicide applications were made 2, 4 and 24 hours after abrasion. A set of abraded plants received no herbicide at any time. In addition, herbicide applications were made to unabraded plants at two times: (i) at the time of abrasion, and (ii) 24 hours after the time of abrasion. In Example 12, all herbicide applications were made within a short period of time, and abrasion was applied 5, 2 and 1 days before herbicide application. In addition, herbicide application was made to unabraded plants.\nThree replications were performed of every treatment. After treatment, all plants were placed in the greenhouse for the remainder of the experiment, and sub-irrigated. The first replicate was placed in one block in order of the treatment list for ease of viewing and the remaining replicates were randomly placed in two separate blocks.\nAfter an interval of 12-14 days after herbicide application, a visual evaluation was performed to estimate herbicidal efficacy as percent control of treated plants compared to untreated check plants."}
{"compound": "O=C(O)CNCP(=O)(O)O", "note": "[glyphosate, N-phosphonomethylglycine]", "values": [{"measurement": "percent control of ABUTH 12 days after glyphosate application", "setting": "abraded before 0 days, glyphosate 0.056 kg a.e./ha", "value": 79, "unit": "%"}, {"measurement": "percent control of ABUTH 12 days after glyphosate application", "setting": "abraded before 0 days, glyphosate 0.11 kg a.e./ha", "value": 95, "unit": "%"}, {"measurement": "percent control of ABUTH 12 days after glyphosate application", "setting": "abraded before 0 days, glyphosate 0.22 kg a.e./ha", "value": 100, "unit": "%"}, {"measurement": "percent control of ABUTH 12 days after glyphosate application", "setting": "abraded before 1 day, glyphosate 0.056 kg a.e./ha", "value": 77, "unit": "%"}, {"measurement": "percent control of ABUTH 12 days after glyphosate application", "setting": "abraded before 1 day, glyphosate 0.11 kg a.e./ha", "value": 92, "unit": "%"}, {"measurement": "percent control of ABUTH 12 days after glyphosate application", "setting": "abraded before 1 day, glyphosate 0.22 kg a.e./ha", "value": 100, "unit": "%"}, {"measurement": "percent control of ABUTH 12 days after glyphosate application", "setting": "abraded before 2 days, glyphosate 0.056 kg a.e./ha", "value": 76, "unit": "%"}, {"measurement": "percent control of ABUTH 12 days after glyphosate application", "setting": "abraded before 2 days, glyphosate 0.11 kg a.e./ha", "value": 93, "unit": "%"}, {"measurement": "percent control of ABUTH 12 days after glyphosate application", "setting": "abraded before 2 days, glyphosate 0.22 kg a.e./ha", "value": 100, "unit": "%"}, {"measurement": "percent control of ABUTH 12 days after glyphosate application", "setting": "abraded before 5 days, glyphosate 0.056 kg a.e./ha", "value": 52, "unit": "%"}, {"measurement": "percent control of ABUTH 12 days after glyphosate application", "setting": "abraded before 5 days, glyphosate 0.11 kg a.e./ha", "value": 73, "unit": "%"}, {"measurement": "percent control of ABUTH 12 days after glyphosate application", "setting": "abraded before 5 days, glyphosate 0.22 kg a.e./ha", "value": 97, "unit": "%"}, {"measurement": "percent control of ABUTH 12 days after glyphosate application", "setting": "abraded before 5 days, glyphosate 0.45 kg a.e./ha", "value": 100, "unit": "%"}]}
